Assay results taken from article PMC6214715 (Journal of veterinary pharmacology and therapeutics, 2018).
Where two headings read alike, the source gives them in different places.

Tests used:
cat liver microsomes = assay type: in vitro ADME; settings: for formation to metabolism ratio: feline liver microsomes, formation rate from (±)-tramadol (Perez Jimenez, 2016) / rate of (+)-M5 formation from the (+)-metabolite
[1] = rats, after tramadol administration; ref Sheikholeslami, 2016; cited from earlier work
dog liver microsomes = assay type: in vitro ADME; settings: for formation to metabolism ratio: DLMs, formation rate from (±)-tramadol (Perez Jimenez, 2016) / rate of (+)-M5 formation from the (+)-metabolite; for Km / Vmax: formation of (+)-M5 from substrate
human liver microsomes = assay type: in vitro ADME; settings: human liver microsomes; formation rate from (±)-tramadol (Perez Jimenez, 2016) / rate of (+)-M5 formation from the (+)-metabolite
CYP2D15 [2] = target: T1, CYP2D15 (Canis lupus familiaris, UniProt Q29473); test: in vitro; settings: dog, recombinant enzyme
T1 sequence (Q29473 1-500): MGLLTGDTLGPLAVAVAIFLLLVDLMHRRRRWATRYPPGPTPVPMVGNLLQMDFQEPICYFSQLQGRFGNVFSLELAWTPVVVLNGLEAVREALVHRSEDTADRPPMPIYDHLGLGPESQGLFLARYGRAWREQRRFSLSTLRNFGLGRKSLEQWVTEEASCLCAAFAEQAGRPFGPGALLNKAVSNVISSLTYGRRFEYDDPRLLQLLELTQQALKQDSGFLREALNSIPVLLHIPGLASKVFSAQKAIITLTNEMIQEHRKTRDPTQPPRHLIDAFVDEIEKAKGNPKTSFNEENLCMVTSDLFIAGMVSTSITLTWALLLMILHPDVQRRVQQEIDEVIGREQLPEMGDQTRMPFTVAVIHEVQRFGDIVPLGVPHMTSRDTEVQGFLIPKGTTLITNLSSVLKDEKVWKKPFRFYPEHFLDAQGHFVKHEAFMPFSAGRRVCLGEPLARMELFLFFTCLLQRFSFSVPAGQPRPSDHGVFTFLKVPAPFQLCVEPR

[3] = system: (+)-M5 formation from (+)-M2 in pooled DLMs; test: in vitro; settings: dog
μ-opioid = settings: in vitro testing; ref Gillen, 2000; cited from earlier work
[4] = dog urine; ref Lintz, 1981; cited from earlier work
[5] = dogs, after tramadol administration; ref Kukanich, 2011; Giorgi, 2009; cited from earlier work
CYP2D15 [6] = target: T1, CYP2D15; assay type: in vitro ADME, canine; settings: recombinant CYP2D15; (+)-M1 10 μM, (+)-M2 0.5 μM
CYP2C21 = target: T2, CYP2C21 (Canis lupus familiaris, UniProt P56594); test: in vitro; settings: dog, recombinant enzyme
T2 sequence (P56594 1-487): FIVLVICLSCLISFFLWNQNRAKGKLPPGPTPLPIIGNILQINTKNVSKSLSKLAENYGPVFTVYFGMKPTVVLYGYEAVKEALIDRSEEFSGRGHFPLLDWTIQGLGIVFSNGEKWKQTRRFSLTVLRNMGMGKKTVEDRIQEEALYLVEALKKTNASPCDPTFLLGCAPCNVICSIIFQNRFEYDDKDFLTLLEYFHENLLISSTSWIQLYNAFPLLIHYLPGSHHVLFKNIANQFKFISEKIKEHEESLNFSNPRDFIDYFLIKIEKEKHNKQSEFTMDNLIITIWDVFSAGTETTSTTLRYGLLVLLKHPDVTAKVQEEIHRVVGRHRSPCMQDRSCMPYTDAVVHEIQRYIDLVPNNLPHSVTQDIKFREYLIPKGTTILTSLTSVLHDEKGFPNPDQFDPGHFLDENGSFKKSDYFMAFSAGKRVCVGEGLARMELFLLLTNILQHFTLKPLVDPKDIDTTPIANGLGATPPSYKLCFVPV

[7] = system: (+)-M5 formation from (+)-M1 in pooled DLMs; test: in vitro; settings: dog
CYP2D15 [8] = settings: CYP2D15 mediated dextromethorphan o-demethylation in DLMs; ref Aidasani, 2008; cited from earlier work

## CNCC1CCCCC1(O)c1cccc(OC)c1 (centres unmarked) [M2, N-desmethyltramadol]
Cat liver microsomes
  formation to metabolism ratio: 1.7
[1]
  CSF to plasma concentration ratio: 0.4
Dog liver microsomes
  formation to metabolism ratio: 3.1
Human liver microsomes
  formation to metabolism ratio: 2.9

## C=C[C@H]1C[N@@]2CC[C@H]1C[C@@H]2[C@@H](O)c1ccnc2ccc(OC)cc12 [quinidine]
CYP2D15 [2]
  inhibition at 5 min, 10 μM: > 70%
[3]
  inhibition at 5 min, 10 μM: > 70%

## CNCC1CCCCC1(O)c1cccc(O)c1 (centres unmarked) [M5, N,O-didesmethyltramadol]
μ-opioid
  weaker μ-opioid agonist efficacy and potency compared with M1: about 30 times
[1]
  CSF to plasma concentration ratio: less than 0.1
  CSF to plasma ratio less than M1: 3 fold
[4]
  M5 and M5 conjugates as a percentage of total metabolites in urine: 43%
[5]
  plasma concentration higher than M1 concentrations: about 20 fold

## CNCC1CCCCC1(O)c1cccc(OC)c1 (single isomer, unassigned; (+)) [(+)-M2, (+)-N-desmethyltramadol]
Cat liver microsomes; pooled cat liver microsomes (n = 16), (+)-M1 at 10 μM, (+)-M2 at 0.5 μM
  (+)-M5 formation rate (in words): intermediate between human and DLMs
CYP2D15 [6]
  formation rate of (+)-M5 (in words): only detected for CYP2D15
Dog liver microsomes; Dog 10 liver microsomes
  Km: 460 nM
  Vmax: 27 pmol/min/mg protein
Dog liver microsomes; Dog 31 liver microsomes
  Km: 390 nM
  Vmax: 23 pmol/min/mg protein
Dog liver microsomes; Dog 46 liver microsomes
  Km: 380 nM
  Vmax: 39 pmol/min/mg protein
Dog liver microsomes; pDLM (liver microsomes pooled from 59 dogs)
  Km: 560 nM
Dog liver microsomes; pDLM (pooled from 59 dogs)
  Vmax: 50 pmol/min/mg protein
Dog liver microsomes; pooled dog liver microsomes (n = 59), (+)-M1 at 10 μM, (+)-M2 at 0.5 μM
  (+)-M5 formation rate (in words): highest activities

## Nc1ccc(S(=O)(=O)Nc2ccnn2-c2ccccc2)cc1 [sulfaphenazole]
CYP2C21
  inhibition at 20 min, 100 μM: > 50%
CYP2D15 [2]
  inhibition at 5 min, 100 μM: < 50%
[3]
  inhibition at 5 min, 100 μM: < 50%
[7]
  inhibition at 20 min, 100 μM: > 50%

## COc1cccc(C2(O)CCCCC2CN(C)C)c1 (centres unmarked) [tramadol, reference compound]
[1]
  CSF to plasma concentration ratio: 0.44

## CC(=O)N1CCN(c2ccc(OCC3COC(Cn4ccnc4)(c4ccc(Cl)cc4Cl)O3)cc2)CC1 (centres unmarked) [ketoconazole]
CYP2D15 [8]
  IC50: 470 nM

## CN(C)C[C@H]1CCCC[C@]1(O)c1cccc(O)c1 [M1, O-desmethyltramadol]
Cat liver microsomes
  formation to metabolism ratio: 1926
[1]
  CSF to plasma concentration ratio: 0.3
Dog liver microsomes
  formation to metabolism ratio: 42
Human liver microsomes
  formation to metabolism ratio: 71
